Like-named read-outs stand apart in the source and are kept apart here. Marks after values point to notes of the source that are not given here. *1 amine or outer side, *2 acyl side, *3 side chain or, on linkers, in order; H or OH if unused. Where a SMILES comes first, the peptide text is derived from it. Bridges are numbered along the chain shown (N, C = ends). Roman numbers before positions name the chains, in order. [ ]: non-standard residue; d: D form. Actinocin(9to1) = Cc1c2oc3c(C)ccc(C(=O)[*:1])c3nc-2c(C(=O)[*:2])c(N)c1=O; NMeV = CN[C@H](C(=O)O)C(C)C; Sar = CNCC(=O)O
What was measured:
[1] = test system: HepG2 cells
[2] = test system: HepG2 cells; remark: listed apart in the source
[3] = test system: HepG2 cells; remark: listed apart in the source
[4] = test system: CYP competent primary hepatocytes; settings: cited from earlier work

**Q.** For `Cc1c2oc3c(C)ccc(C(=O)N[C@@H]4C(=O)N[C@H](C(C)C)C(=O)N5CCC[C@H]5C(=O)N(C)CC(=O)N(C)[C@@H](C(C)C)C(=O)O[C@@H]4C)c3nc-2c(C(=O)N[C@@H]2C(=O)N[C@H](C(C)C)C(=O)N3CCC[C@H]3C(=O)N(C)CC(=O)N(C)[C@@H](C(C)C)C(=O)O[C@@H]2C)c(N)c1=O` [ACT, actinomycin D] (I: T[dV]P[Sar][NMeV] / II: T[dV]P[Sar][NMeV]; ester I:1-I:C, II:1-II:C; linker I:N-II:N via Actinocin(9to1)), which MYC gene regulation [1] is on record?
**A.** The MYC gene regulation was “down-regulated”.

**Q.** What about the “RNA polymerase II gene regulation” value [1] of the same molecule?
**A.** Its value is “down-regulation”.

**Q.** And the “topoisomerase II (TOPO2) gene regulation” value [1]?
**A.** The value was “down-regulation”.

**Q.** And the “CDKN1A gene regulation relative to vehicle/S9 control” value ([1]; ACT 250 nM, without S9, 48 h)?
**A.** The value was −1.15 fold.

**Q.** What about the “CRABP2 gene regulation relative to vehicle/S9 control” value ([1]; ACT 250 nM, without S9, 48 h) of the same molecule?
**A.** Its value is 2.82* fold.

**Q.** And the “EMP1 gene regulation relative to vehicle/S9 control” value ([1]; ACT 250 nM, without S9, 48 h)?
**A.** Its value is 1.91* fold.

**Q.** What about the “EMP3 gene regulation relative to vehicle/S9 control” value ([1]; ACT 250 nM, without S9, 48 h) of the same molecule?
**A.** The value was 5.68* fold.

**Q.** And the “IER5 gene regulation relative to vehicle/S9 control” value ([1]; ACT 250 nM, without S9, 48 h)?
**A.** Its value is 3.07* fold.

**Q.** And the “LGALS7 gene regulation relative to vehicle/S9 control” value ([1]; ACT 250 nM, without S9, 48 h)?
**A.** The value was 1.69* fold.

**Q.** What about the “PLAU gene regulation relative to vehicle/S9 control” value ([1]; ACT 250 nM, without S9, 48 h) of the same molecule?
**A.** The value was 3.69* fold.

**Q.** What about the “PROCR gene regulation relative to vehicle/S9 control” value ([1]; ACT 250 nM, without S9, 48 h) of the same molecule?
**A.** Its value is 2.58* fold.

**Q.** What about the Categorization ([2]; 250 nM, 24 h, without S9) of the same molecule?
**A.** The Categorization was “genotoxic”.

**Q.** What about the Categorization ([2]; 250 nM, 48 h, without S9) of the same molecule?
**A.** Its Categorization is “genotoxic”.

**Q.** Which EGR1 gene regulation [1] does the source give for `COS(C)(=O)=O` [MMS, methyl methanesulfonate] here?
**A.** Its EGR1 gene regulation is “up-regulation”.

**Q.** What about the MYC gene regulation [1] of the same molecule?
**A.** The MYC gene regulation was “down-regulated”.

**Q.** What about the “AP endonuclease 2 (APEX2) gene regulation” value ([1]; after 24 h and 48 h treatment) of the same molecule?
**A.** Its value is “up-regulated”.

**Q.** What about the “β-polymerase (POLB) gene regulation” value ([1]; after 48 h exposure) of the same molecule?
**A.** The value was “up-regulated”.

**Q.** Which results are given for `CCN(CC)N=O` [DEN, N-nitrosodiethylamine]?
**A.** EGR1 gene regulation [1]: up-regulation; number of down-regulated genes [1]: 57; number of up-regulated genes [1]: 88; CDKN1A gene regulation relative to vehicle/S9 control ([1]; DEN 25 mM, +S9, 48 h): 1.95* fold; CRABP2 gene regulation relative to vehicle/S9 control ([1]; DEN 25 mM, +S9, 48 h): 2.09* fold; EMP1 gene regulation relative to vehicle/S9 control ([1]; DEN 25 mM, +S9, 48 h): 1.84* fold; EMP3 gene regulation relative to vehicle/S9 control ([1]; DEN 25 mM, +S9, 48 h): 2.26* fold; IER5 gene regulation relative to vehicle/S9 control ([1]; DEN 25 mM, +S9, 48 h): 1.50* fold; LGALS7 gene regulation relative to vehicle/S9 control ([1]; DEN 25 mM, +S9, 48 h): 1.77 fold; PLAU gene regulation relative to vehicle/S9 control ([1]; DEN 25 mM, +S9, 48 h): 1.84 fold; PROCR gene regulation relative to vehicle/S9 control ([1]; DEN 25 mM, +S9, 48 h): 1.76* fold; CDKN1A gene regulation relative to vehicle/S9 control ([1]; DEN 25 mM, without S9, 48 h): −1.19 fold; CRABP2 gene regulation relative to vehicle/S9 control ([1]; DEN 25 mM, without S9, 48 h): 1.54* fold; EMP1 gene regulation relative to vehicle/S9 control ([1]; DEN 25 mM, without S9, 48 h): 1.61* fold; EMP3 gene regulation relative to vehicle/S9 control ([1]; DEN 25 mM, without S9, 48 h): 1.04 fold; IER5 gene regulation relative to vehicle/S9 control ([1]; DEN 25 mM, without S9, 48 h): 1.06 fold; LGALS7 gene regulation relative to vehicle/S9 control ([1]; DEN 25 mM, without S9, 48 h): 1.11 fold; PLAU gene regulation relative to vehicle/S9 control ([1]; DEN 25 mM, without S9, 48 h): 1.86* fold; PROCR gene regulation relative to vehicle/S9 control ([1]; DEN 25 mM, without S9, 48 h): 1.30 fold; CDKN1A gene regulation relative to vehicle/S9 control ([1]; DEN 50 mM, +S9, 48 h): 2.20* fold; CRABP2 gene regulation relative to vehicle/S9 control ([1]; DEN 50 mM, +S9, 48 h): 1.80* fold; EMP1 gene regulation relative to vehicle/S9 control ([1]; DEN 50 mM, +S9, 48 h): 2.09* fold; EMP3 gene regulation relative to vehicle/S9 control ([1]; DEN 50 mM, +S9, 48 h): 2.03* fold; IER5 gene regulation relative to vehicle/S9 control ([1]; DEN 50 mM, +S9, 48 h): 1.51 fold; LGALS7 gene regulation relative to vehicle/S9 control ([1]; DEN 50 mM, +S9, 48 h): 1.97* fold; PLAU gene regulation relative to vehicle/S9 control ([1]; DEN 50 mM, +S9, 48 h): 1.59* fold; PROCR gene regulation relative to vehicle/S9 control ([1]; DEN 50 mM, +S9, 48 h): 1.63* fold; CDKN1A gene regulation relative to vehicle/S9 control ([1]; DEN 50 mM, without S9, 48 h): −1.48* fold; CRABP2 gene regulation relative to vehicle/S9 control ([1]; DEN 50 mM, without S9, 48 h): 1.40 fold; EMP1 gene regulation relative to vehicle/S9 control ([1]; DEN 50 mM, without S9, 48 h): 1.37 fold; EMP3 gene regulation relative to vehicle/S9 control ([1]; DEN 50 mM, without S9, 48 h): 1.02 fold; IER5 gene regulation relative to vehicle/S9 control ([1]; DEN 50 mM, without S9, 48 h): 1.03 fold; LGALS7 gene regulation relative to vehicle/S9 control ([1]; DEN 50 mM, without S9, 48 h): 1.23* fold; PLAU gene regulation relative to vehicle/S9 control ([1]; DEN 50 mM, without S9, 48 h): 1.44 fold; PROCR gene regulation relative to vehicle/S9 control ([1]; DEN 50 mM, without S9, 48 h): 1.20 fold; classification by 91 gene-classifier ([3]; with S9 (MAS)): genotoxic; classification by 91 gene-classifier ([3]; without S9): non-genotoxic; concentrations giving a positive response [4]: 10000 to 32000 µM

**Q.** Which “gene expression changes, single compound analysis vs vehicle controls” value ([1]; DMBA 10 μM w/o S9) does the source give for `Cc1c2ccccc2c(C)c2c1ccc1ccccc12` [DMBA, 7,12-dimethylbenz[a]anthracene] here?
**A.** Its value is “extremely weak or no statistically significant”.

**Q.** What about the “CDKN1A gene regulation relative to vehicle/S9 control” value ([1]; DMBA 10 μM, +S9, 48 h) of the same molecule?
**A.** The value was 3.18* fold.

**Q.** And the “CRABP2 gene regulation relative to vehicle/S9 control” value ([1]; DMBA 10 μM, +S9, 48 h)?
**A.** The value was 2.31* fold.

**Q.** And the “EMP1 gene regulation relative to vehicle/S9 control” value ([1]; DMBA 10 μM, +S9, 48 h)?
**A.** Its value is 1.93* fold.

**Q.** And the “EMP3 gene regulation relative to vehicle/S9 control” value ([1]; DMBA 10 μM, +S9, 48 h)?
**A.** Its value is 2.61* fold.

**Q.** What about the “IER5 gene regulation relative to vehicle/S9 control” value ([1]; DMBA 10 μM, +S9, 48 h) of the same molecule?
**A.** Its value is 1.83* fold.

**Q.** And the “LGALS7 gene regulation relative to vehicle/S9 control” value ([1]; DMBA 10 μM, +S9, 48 h)?
**A.** The value was 1.93* fold.

**Q.** What about the “PLAU gene regulation relative to vehicle/S9 control” value ([1]; DMBA 10 μM, +S9, 48 h) of the same molecule?
**A.** The value was 2.13* fold.

**Q.** And the “PROCR gene regulation relative to vehicle/S9 control” value ([1]; DMBA 10 μM, +S9, 48 h)?
**A.** The value was 2.26* fold.

**Q.** And the “CDKN1A gene regulation relative to vehicle/S9 control” value ([1]; DMBA 10 μM, without S9, 48 h)?
**A.** The value was 1.36 fold.

**Q.** What about the “CRABP2 gene regulation relative to vehicle/S9 control” value ([1]; DMBA 10 μM, without S9, 48 h) of the same molecule?
**A.** The value was 1.10 fold.

**Q.** What about the “EMP1 gene regulation relative to vehicle/S9 control” value ([1]; DMBA 10 μM, without S9, 48 h) of the same molecule?
**A.** Its value is 1.11 fold.

**Q.** What about the “EMP3 gene regulation relative to vehicle/S9 control” value ([1]; DMBA 10 μM, without S9, 48 h) of the same molecule?
**A.** Its value is 1.18 fold.

**Q.** And the “IER5 gene regulation relative to vehicle/S9 control” value ([1]; DMBA 10 μM, without S9, 48 h)?
**A.** Its value is 1.30* fold.

**Q.** And the “LGALS7 gene regulation relative to vehicle/S9 control” value ([1]; DMBA 10 μM, without S9, 48 h)?
**A.** Its value is 1.25* fold.

**Q.** What about the “PLAU gene regulation relative to vehicle/S9 control” value ([1]; DMBA 10 μM, without S9, 48 h) of the same molecule?
**A.** Its value is 1.29* fold.

**Q.** And the “PROCR gene regulation relative to vehicle/S9 control” value ([1]; DMBA 10 μM, without S9, 48 h)?
**A.** Its value is 1.18 fold.

**Q.** What about the “regulation of the 91 genes” value ([1]; DMBA 75 μM w/o S9) of the same molecule?
**A.** Its value is “relatively weak”.

**Q.** And the “CDKN1A gene regulation relative to vehicle/S9 control” value ([1]; DMBA 75 μM, without S9, 48 h)?
**A.** Its value is 1.50* fold.

**Q.** What about the “CRABP2 gene regulation relative to vehicle/S9 control” value ([1]; DMBA 75 μM, without S9, 48 h) of the same molecule?
**A.** The value was 1.27 fold.

**Q.** What about the “EMP1 gene regulation relative to vehicle/S9 control” value ([1]; DMBA 75 μM, without S9, 48 h) of the same molecule?
**A.** Its value is 1.31 fold.

**Q.** And the “EMP3 gene regulation relative to vehicle/S9 control” value ([1]; DMBA 75 μM, without S9, 48 h)?
**A.** Its value is 1.38* fold.

**Q.** And the “IER5 gene regulation relative to vehicle/S9 control” value ([1]; DMBA 75 μM, without S9, 48 h)?
**A.** The value was 1.26* fold.

**Q.** What about the “LGALS7 gene regulation relative to vehicle/S9 control” value ([1]; DMBA 75 μM, without S9, 48 h) of the same molecule?
**A.** Its value is 1.26 fold.

**Q.** What about the “PLAU gene regulation relative to vehicle/S9 control” value ([1]; DMBA 75 μM, without S9, 48 h) of the same molecule?
**A.** The value was 1.53* fold.

**Q.** And the “PROCR gene regulation relative to vehicle/S9 control” value ([1]; DMBA 75 μM, without S9, 48 h)?
**A.** The value was 1.32* fold.

**Q.** What about the Categorization ([2]; 10 μM, 48 h, with S9) of the same molecule?
**A.** Its Categorization is “genotoxic”.

**Q.** And the Categorization ([2]; 75 μM, 48 h, without S9)?
**A.** The Categorization was “genotoxic^#”.

**Q.** And the Categorization ([2]; DMBA 10 μM, 48 h, without S9)?
**A.** The Categorization was “non-genotoxic”.

**Q.** What about the “prediction using the 91 top-scored genes” value ([3]; 75 μM w/o S9) of the same molecule?
**A.** The value was “predicted correctly”.

**Q.** Which results are given for aflatoxin B1 [AFB1]?
**A.** EGR1 gene regulation [1]: up-regulation; gene expression changes, single compound analysis vs vehicle controls [1]: extremely weak or no statistically significant

**Q.** With `O=P1(N(CCCl)CCCl)NCCCO1` (centres unmarked) [CPA, cyclophosphamide] as the molecule, how does the EGR1 gene regulation [1] read?
**A.** Its EGR1 gene regulation is “up-regulation”.

**Q.** What about the “gene expression changes, single compound analysis vs vehicle controls” value [1] of the same molecule?
**A.** Its value is “extremely weak or no statistically significant”.
